Measurements: US20160113932A1, “TREATMENT OF CANCERS USING PI3 KINASE ISOFORM MODULATORS” (INFINITY PHARMACEUTICALS, INC., priority 2013, published 2016)
“Also recorded” adds a separate entry of the source.

Assays:
[1] = test system: Human T-cell; assay: Human T-cell proliferation; type: cell-based
[2] = Absolute bioavailability / pharmacokinetics in cynomolgus monkeys; type: in vivo; details: Monkey, PO, 5 mg/kg, suspension
[3] = Phase 1 study in hematologic malignancies: pharmacokinetics, steady state plasma concentrations; type: in vivo, human
Procedure: (§1) PK and PD markers were evaluated after the first dose (e.g., 8 mg BID) and at steady state. PD activity (PI3K inhibition) in whole blood was evaluated using a basophil activation assay which measured reduction in CD63 expression on the surface of basophils following ex vivo stimulation.

[4] = test system: CD63 expression on the surface of basophils; assay: Basophil activation assay in whole blood of oncology patients (PI3K inhibition); type: in vivo, human; details: from PK/PD in patients
Procedure: as §1

[5] = test system: serum cytokines/chemokines and matrix metalloproteinases; assay: Serum cytokines/chemokines in patients, Milliplex 96-well immuno-assay; type: in vivo, human; details: CLL patients pooled, 8-75 mg BID, C1D8 and/or C2D1
Procedure: Serum concentrations of a panel of human cytokines/chemokines were determined by Milliplex 96-well immuno-assay as described below.
the blood was allowed to clot for at least 30 minutes before centrifugation for 10 minutes at 1000×g. Serum was removed and either assayed immediately or aliquoted and stored at ≦−20° C. When using frozen samples, it is recommended to thaw the samples completely, mix well by vortexing and centrifuge prior to use in the assay to remove particulates.
1.0 mL deionized water was added to the bottle containing lyophilized Serum Matrix (catalog number MX HSM from MILLIPLEX® Map), and was allowed to be mixed will for at least 10 minutes for complete reconstitution.
200 μL of wash buffer was added into each well of the plate. The plate was sealed and mixed on a plate shaker for 10 minutes at room temperature (20-25° C.). The wash buffer was decanted and the residual amount was removed from all wells by inverting the plate and tapping it smartly onto absorbent towels several times. 25 μL of each standard or control was added into the appropriate wells. […]
The plate was run on Luminex 200™, HTS, FLEXMAP 3D™ or MAGPIX® with xPONENT software. The Median Fluorescent Intensity (MFI) data was saved and analyzed using a 5-parameter logistic or spline curve-fitting method for calculating cytokine/chemokines concentrations in samples. […]

[6] = test system: OCI-LY3; assay: DLBCL cellular growth inhibition assay; type: cell-based; details: Homo sapiens
Procedure: Activation of the PI3K pathway is an important component of normal B-cell receptor (BCR) signaling and has been implicated in the pathogenesis of DLBCL. […] There was rapid modulation of phospho-AKT and phospho-PRAS40 by 30 minutes, whereas modulation of phospho-S6 was not detected until after 8 hours.

[7] = test system: Loucy; assay: T-ALL growth inhibition; type: cell-based, human; details: Homo sapiens; PTEN deficient Loucy cell line
Procedure: To further explore the individual contributions of the varying PI3K isoforms on T-ALL cell growth, Loucy ALL cells were treated with doxorubicin and various PI3K inhibitors as shown in FIG. 32 at various concentrations as denoted in the figure.

[8] = test system: HH; assay: CTCL cytotoxicity, 72 hours; type: cell-based; details: HH cells, vs MJ or HuT78
Procedure: (§2) MJ and HuT78 cells were grown in IMDM 20% FBS, and HH cells were grown in RPMI 10% FBS.

[9] = test system: HuT78; assay: CTCL cytotoxicity, 72 hours; type: cell-based; details: HuT78 cells
Procedure: as §2

[10] = test system: MJ; assay: CTCL cytotoxicity, 72 hours; type: cell-based; details: MJ cells
Procedure: as §2

[11] = test system: pAKT and Ki-67 expression in primary CLL cells; assay: CLL cell proliferation with CD40L/IL-2/IL-10, four color FACS; type: cell-based; details: Homo sapiens, primary CLL cells stimulated with CD40L/IL-2/IL-10, n=2, read-out: EC50, inhibition of pAKT and Ki-67 expression
Procedure: Generally, CLL cells were seeded and incubated with proliferation cocktail (containing sCD40L, rH-IL 10 and rH-IL 2) in media. Then, four color FACS analysis was performed using antibodies to pAKT, Ki-67, CD19 and CD5.

[12] = target: hERG channel current (Homo sapiens, UniProt Q12809); assay: In vitro hERG assay; details: hERG IC50 fit
hERG channel current, sequence (Q12809 whole entry): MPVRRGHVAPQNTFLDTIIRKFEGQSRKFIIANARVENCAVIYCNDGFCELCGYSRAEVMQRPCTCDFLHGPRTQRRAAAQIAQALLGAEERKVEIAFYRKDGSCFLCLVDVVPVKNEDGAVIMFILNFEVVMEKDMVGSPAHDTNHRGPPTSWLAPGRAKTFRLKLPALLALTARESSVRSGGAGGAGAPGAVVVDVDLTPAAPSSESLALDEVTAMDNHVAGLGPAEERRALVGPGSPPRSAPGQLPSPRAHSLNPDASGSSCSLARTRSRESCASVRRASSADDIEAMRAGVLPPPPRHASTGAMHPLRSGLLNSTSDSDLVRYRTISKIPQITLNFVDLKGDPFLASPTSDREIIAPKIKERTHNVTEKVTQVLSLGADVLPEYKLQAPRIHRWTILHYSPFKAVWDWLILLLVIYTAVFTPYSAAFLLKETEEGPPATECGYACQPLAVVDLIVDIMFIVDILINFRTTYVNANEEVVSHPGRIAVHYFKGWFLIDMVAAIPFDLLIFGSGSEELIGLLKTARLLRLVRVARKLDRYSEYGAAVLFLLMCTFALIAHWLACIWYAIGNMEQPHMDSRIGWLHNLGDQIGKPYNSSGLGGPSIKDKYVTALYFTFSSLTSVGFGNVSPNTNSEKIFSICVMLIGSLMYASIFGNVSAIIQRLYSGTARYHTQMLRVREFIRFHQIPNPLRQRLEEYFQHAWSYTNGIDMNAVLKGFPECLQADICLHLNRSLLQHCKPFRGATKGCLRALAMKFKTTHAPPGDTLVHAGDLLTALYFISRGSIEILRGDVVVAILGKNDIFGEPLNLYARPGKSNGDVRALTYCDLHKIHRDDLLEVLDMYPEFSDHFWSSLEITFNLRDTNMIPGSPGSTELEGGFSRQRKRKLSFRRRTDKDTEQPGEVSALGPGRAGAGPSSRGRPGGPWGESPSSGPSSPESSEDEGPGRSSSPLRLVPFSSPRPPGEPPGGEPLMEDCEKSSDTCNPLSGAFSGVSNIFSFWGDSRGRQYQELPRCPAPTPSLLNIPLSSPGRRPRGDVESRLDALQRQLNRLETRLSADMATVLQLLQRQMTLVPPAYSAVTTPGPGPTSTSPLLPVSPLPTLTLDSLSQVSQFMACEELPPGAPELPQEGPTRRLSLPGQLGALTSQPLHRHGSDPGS

C[C@H](Nc1ncnc2[nH]cnc12)c1cc2cccc(Cl)c2c(=O)n1-c1ccccc1 [Compound 292]
EC50 [1]: 5 to 10 nM | Foral [2]: 40% | mean predose steady state plasma concentration ([3]; 25 mg BID, C2D1): 390 ng/mL | dose dependence of plasma Cmax and AUC ([3]; patients with hematologic malignancies, BID dosing): dose-proportional increases; also recorded: dose-proportional PK; also recorded: linear PK profile; also recorded: increases proportionally with doses | time of maximum plasma concentration post-dosing ([3]; steady state C2D1, 25 mg and 75 mg BID): about 1 hour | dose achieving complete inhibition of PI3K-δ [4]: ≥ 15 mg BID | doses that increasingly suppress PI3K-γ [4]: ≥ 25 mg BID | analytes decreased after treatment compared to baseline [5]: 10 of 72 analytes | IC50 [6]: > 50 µM | IC50 [7]: 245 nM | cytotoxicity, sensitivity [8]: more sensitive | cytotoxicity, sensitivity [9]: medium sensitivity | cytotoxicity, sensitivity [10]: resistant | EC50 [11]: < 10 nM | Hill coefficient [12]: 1.3
